{
  "source": "patent US8324197B2",
  "about": "“Transplatinum complexes with N2O2 donor sets as cytotoxic and antitumor agents” (Virginia Commonwealth University, priority 2005, dated 2012)",
  "key": {"[1]": {"conditions": "cited from earlier work; for k1, rate constant for the first aquation step: literature values of other platinum compounds"}, "[2]": {"conditions": "cited from earlier work; for k1, first hydrolysis step to the monoaqua complex: analogous dichloride complexes, I=0.1 M"}, "CH1": {"test_system": "CH1", "test": "Growth inhibition in human ovarian cancer cell line panel, 96 h exposure", "assay_type": "cell-based", "conditions": "for CH1 RF: RF = (IC50 Resistant)/(IC50 Sensitive)", "experimental": "(§1) It is noteworthy that the acetate compounds maintain cytotoxicity with low resistance factors in all cases. The trans-[Pt(OAc)2(NH3)2] compound is also very water-soluble but the cytotoxicity of >100 μM confirms the requirement for a planar amine to enhance cytotoxicity in the trans geometry."}, "41M": {"test_system": "41M", "test": "Growth inhibition in human ovarian cancer cell line panel, 96 h exposure", "assay_type": "cell-based", "conditions": "for 41M RF: RF = (IC50 Resistant)/(IC50 Sensitive)", "experimental": "as §1"}, "[3]": {"conditions": "literature; cited from earlier work"}, "[4]": {"test": "Solubility of TPA carboxylates, Example 6", "assay_type": "physicochemical", "conditions": "aqueous; table title ambient temperature, text 37° C."}, "[5]": {"conditions": "corresponding diaqua complex; other compounds of the series 2-4c given for comparison (refs 11, 14); cited from earlier work"}, "[6]": {"test": "Initial hydrolysis of TPA carboxylates monitored by HPLC at 37° C.", "assay_type": "physicochemical", "conditions": "H2O; for hydrolysis occurring after 9 h: HPLC; for k1, initial hydrolysis rate constant: I=0.02 M", "experimental": "The slowest initial hydrolysis rate was found for complex 2c t-[Pt(OAc)2(NH3)(2-pic)], with just 4% hydrolysis occurring after 9 h. The hydrolysis of the formate complex 4f was the fastest, with 24% hydrolysis occurring after 9 h. The hydrolysis rates of the acetate complexes followed the pattern 2c<4c<3c. […] Thus, hydrolysis of the acetate complexes is slowed by an approximate order of magnitude compared to their direct chloro analogs but there is little difference in the present case between 3- and 4-picoline. Steric hindrance therefore predominates over the electronic effects of the methyl group. In the case of the chloride complexes, the 3-pic directs less electron density to the platinum rendering it less nucleophilic relative to the 2-pic and 4-pic. 14 We observe the same trend in the acetate complexes, but the effect is lessened due to the carboxylate group being a weak ligand, with a low trans influence and trans effect.^11"}, "[7]": {"test": "pKa of corresponding TPA diaqua complexes by potentiometric titration with NaOH", "assay_type": "physicochemical", "conditions": "corresponding diaqua complex trans-[Pt(OH2)2(L)(L′)], ambient temperature", "experimental": "(§2) The aqueous solubility of the acetate compounds and the acid dissociation constants of the corresponding aqua species are given in Table 1. Use of acetates enhances aqueous solubility which is dependent on the exact nature of the donor ligands. The pKa values were determined by potentiometric titration of solutions of trans-[Pt(H2O)2(L)(L′)]^2+ (formed by the dissolution of the isolated trans-[Pt(NO3)2(L)(L′)]) with NaOH. […] (X=2,3,4-Me).^30"}, "[8]": {"test": "Aqueous solubility of TPA-acetate complexes (sequential addition of water)", "assay_type": "physicochemical", "conditions": "ambient temperature", "experimental": "as §2"}, "[9]": {"test_system": "ovarian cancer cell line panel", "test": "Cytotoxicity in ovarian cancer cell line panel (cell line not specified)", "assay_type": "cell-based, human", "experimental": "as §1"}, "A2780": {"test_system": "A2780", "test": "Growth inhibition in human ovarian cancer cell line panel, 96 h exposure", "assay_type": "cell-based", "conditions": "for A2780 RF: RF = (IC50 Resistant)/(IC50 Sensitive)", "experimental": "as §1"}},
  "note": "Read-outs that look alike come from different tables or passages of the source. Marks after values point to notes of the source that are not given here.",
  "data": [
    {"molecule": "N.N.[Cl][Pt][Cl]", "note": "[Cisplatin, cis-[PtCl2(NH3)2], reference compound]", "values": [
      {"measurement": "k1, rate constant for the first aquation step", "setting": "[1]", "value": "5.18e-05", "unit": "s⁻¹"},
      {"measurement": "hydrolysis rate", "setting": "[2]; at 20° C., literature", "value": "5.18e-05", "unit": "s⁻¹"},
      {"measurement": "IC50", "setting": "CH1", "value": 0.1, "unit": "µM"},
      {"measurement": "CH1 RF", "setting": "CH1", "value": "(6.7)"},
      {"measurement": "IC50", "setting": "41M", "value": 1.4, "unit": "µM"},
      {"measurement": "41M RF", "setting": "41M", "value": "(6.1)"}
    ]},
    {"molecule": "[NH2][Pt]1([NH2])[O]C(=O)C2(CCC2)C(=O)[O]1", "note": "[Carboplatin, cis-[Pt(CBDCA)(NH3)2]]", "values": [
      {"measurement": "hydrolysis rate constant", "setting": "[1]; aqueous solution", "value": "< 5e-09", "unit": "s⁻¹"},
      {"measurement": "k1, rate constant for the first aquation step", "setting": "[1]", "value": "<10^−8 s^−1"},
      {"measurement": "hydrolysis rate", "setting": "[1]; phosphate buffer at 310 K", "value": "7.2e-07", "unit": "s⁻¹"}
    ]},
    {"molecule": "N.N.[Cl][Pt+2][Cl]", "note": "[Transplatin, trans-[PtCl2(NH3)2]]", "values": [
      {"measurement": "k1, rate constant for the first aquation step", "setting": "[1]", "value": 0.00019, "unit": "s⁻¹"},
      {"measurement": "time to complete reaction with N-AcMet", "setting": "[3]", "value": "≤ 5", "unit": "h"}
    ]},
    {"molecule": "Cc1ccncc1.N.O=C([O-])C(F)(F)F.O=C([O-])C(F)(F)F.[Pt+2]", "note": "[4g, trans-[Pt(Tfa)2(NH3)(4-pic)]]", "values": [
      {"measurement": "Solubility (mg/mL), TPA Substituted Carboxylates", "setting": "[4]", "value": "Insoluble"}
    ]},
    {"molecule": "Cc1cccnc1.N.[Cl][Pt][Cl]", "note": "[3-pic]", "values": [
      {"measurement": "k1, first hydrolysis step to the monoaqua complex", "setting": "[2]", "value": 0.000127, "unit": "s⁻¹"}
    ]},
    {"molecule": "CC(=O)[O-].CC(=O)[O-].Cc1ccccn1.N.[Pt+2]", "note": "[2c, trans-[Pt(OAc)2(NH3)(2-pic)]]", "values": [
      {"measurement": "Solubility (mg/mL), TPA Acetates", "setting": "[4]", "value": 10, "unit": "mg/mL"},
      {"measurement": "pKa1", "setting": "[5]", "value": 4.03},
      {"measurement": "pKa2", "setting": "[5]", "value": 7.1},
      {"measurement": "hydrolysis occurring after 9 h", "setting": "[6]", "value": 4, "unit": "%"},
      {"measurement": "k1, initial hydrolysis rate constant", "setting": "[6]", "value": "1.07e-06", "unit": "s⁻¹"}
    ]},
    {"molecule": "CC(=O)[O][Pt][O]C(C)=O.N.N", "note": "[trans-[Pt(OAc)2(NH3)2]]", "values": [
      {"measurement": "pKa1", "setting": "[7]", "value": "4.0^b"},
      {"measurement": "pKa2", "setting": "[7]", "value": 7.08},
      {"measurement": "Solubility", "setting": "[8]", "value": 21, "unit": "mg/mL"},
      {"measurement": "IC50", "setting": "[9]", "value": "> 100", "unit": "µM"}
    ]},
    {"molecule": "NCCNCCN.[Cl-].[Pt+2]", "note": "[[PtCl(dien)]+]", "values": [
      {"measurement": "k1, rate constant for the first aquation step", "setting": "[1]", "value": "(6.50 ± 0.13) × 10^−5 s^−1"}
    ]},
    {"molecule": "CC(=O)[O][Pt][O]C(C)=O.Cc1ccncc1.N", "note": "[4c]", "values": [
      {"measurement": "Solubility (mg/mL), TPA Acetates", "setting": "[4]", "value": 13.2, "unit": "mg/mL"},
      {"measurement": "pKa1", "setting": "[5]", "value": 3.94},
      {"measurement": "pKa2", "setting": "[5]", "value": 6.88},
      {"measurement": "k1, initial hydrolysis rate constant", "setting": "[6]", "value": "3.26e-06", "unit": "s⁻¹"}
    ]},
    {"molecule": "trans-[diacetatobis(pyridine)platinum(II)] [trans-[Pt(OAc)2(py)2]]", "values": [
      {"measurement": "IC50", "setting": "CH1", "value": 19, "unit": "µM"},
      {"measurement": "CH1 RF", "setting": "CH1", "value": "(0.22)"},
      {"measurement": "IC50", "setting": "A2780", "value": 12.8, "unit": "µM"},
      {"measurement": "A2780 RF", "setting": "A2780", "value": "(0.90)"},
      {"measurement": "IC50", "setting": "41M", "value": 14, "unit": "µM"},
      {"measurement": "41M RF", "setting": "41M", "value": "(0.32)"}
    ]},
    {"molecule": "CCC[NH][Pt]([NH]CCC)([O]C(=O)CCl)[O]C(=O)CCl", "note": "[cis-[Pt(PrNH2)2(ClCH2CO2)2]]", "values": [
      {"measurement": "rate constant of substitution by water of the first carboxylate ligand", "setting": "[1]; cis carboxylate complex, literature", "value": "4.38e-05", "unit": "s⁻¹"}
    ]},
    {"molecule": "trans-[Pt(OAcCl)2(NH3)(4-pic)] [4f]", "values": [
      {"measurement": "Solubility (mg/mL), TPA Substituted Carboxylates", "setting": "[4]", "value": 0.29, "unit": "mg/mL"},
      {"measurement": "hydrolysis occurring after 9 h", "setting": "[6]", "value": 24, "unit": "%"}
    ]},
    {"molecule": "Cc1ccncc1.N.O=C([O-])c1ccccc1.O=C([O-])c1ccccc1.[Pt+2]", "note": "[4h, trans-[Pt(OBz)2(NH3)(4-pic)]]", "values": [
      {"measurement": "Solubility (mg/mL), TPA Substituted Carboxylates", "setting": "[4]", "value": "Insoluble"}
    ]},
    {"molecule": "Cc1ccncc1.N.O=C(CO)[O][Pt][O]C(=O)CO", "note": "[4d, trans-[Pt(OAcOH)2(NH3)(4-pic)]]", "values": [
      {"measurement": "k1, initial hydrolysis rate constant", "setting": "[6]", "value": "5.61e-06", "unit": "s⁻¹"}
    ]},
    {"molecule": "CC(=O)[O][Pt][O]C(C)=O.Cc1cccnc1.N", "note": "[3c]", "values": [
      {"measurement": "Solubility (mg/mL), TPA Acetates", "setting": "[4]", "value": 11.4, "unit": "mg/mL"},
      {"measurement": "pKa1", "setting": "[5]", "value": 3.97},
      {"measurement": "pKa2", "setting": "[5]", "value": 6.78},
      {"measurement": "k1, initial hydrolysis rate constant", "setting": "[6]", "value": "3.52e-06", "unit": "s⁻¹"}
    ]},
    {"molecule": "Cc1ccncc1.N.[Cl][Pt][Cl]", "note": "[4-pic]", "values": [
      {"measurement": "k1, first hydrolysis step to the monoaqua complex", "setting": "[2]", "value": "5.2e-05", "unit": "s⁻¹"}
    ]},
    {"molecule": "trans-[diacetato(ammine)(quinoline)platinum(II)] [trans-[Pt(OAc)2(NH3)(quin)]]", "values": [
      {"measurement": "IC50", "setting": "CH1", "value": 17, "unit": "µM"},
      {"measurement": "CH1 RF", "setting": "CH1", "value": "(0.48)"},
      {"measurement": "IC50", "setting": "A2780", "value": 13, "unit": "µM"},
      {"measurement": "A2780 RF", "setting": "A2780", "value": "(1.46)"},
      {"measurement": "IC50", "setting": "41M", "value": 22, "unit": "µM"},
      {"measurement": "41M RF", "setting": "41M", "value": "(1.00)"}
    ]},
    {"molecule": "Cc1ccccn1.N.[Cl][Pt][Cl]", "note": "[2-pic]", "values": [
      {"measurement": "k1, first hydrolysis step to the monoaqua complex", "setting": "[2]", "value": "2.6e-05", "unit": "s⁻¹"}
    ]}
  ]
}
